Measured values as given in US9326986B2, “Quinazolinone, quinolone and related analogs as sirtuin modulators” (GLAXOSMITHKLINE LLC, priority 2008, dated 2016).

Molecular target: T1, SIRT1 (Homo sapiens, UniProt Q96EB6)
T1 sequence (Q96EB6 1-747): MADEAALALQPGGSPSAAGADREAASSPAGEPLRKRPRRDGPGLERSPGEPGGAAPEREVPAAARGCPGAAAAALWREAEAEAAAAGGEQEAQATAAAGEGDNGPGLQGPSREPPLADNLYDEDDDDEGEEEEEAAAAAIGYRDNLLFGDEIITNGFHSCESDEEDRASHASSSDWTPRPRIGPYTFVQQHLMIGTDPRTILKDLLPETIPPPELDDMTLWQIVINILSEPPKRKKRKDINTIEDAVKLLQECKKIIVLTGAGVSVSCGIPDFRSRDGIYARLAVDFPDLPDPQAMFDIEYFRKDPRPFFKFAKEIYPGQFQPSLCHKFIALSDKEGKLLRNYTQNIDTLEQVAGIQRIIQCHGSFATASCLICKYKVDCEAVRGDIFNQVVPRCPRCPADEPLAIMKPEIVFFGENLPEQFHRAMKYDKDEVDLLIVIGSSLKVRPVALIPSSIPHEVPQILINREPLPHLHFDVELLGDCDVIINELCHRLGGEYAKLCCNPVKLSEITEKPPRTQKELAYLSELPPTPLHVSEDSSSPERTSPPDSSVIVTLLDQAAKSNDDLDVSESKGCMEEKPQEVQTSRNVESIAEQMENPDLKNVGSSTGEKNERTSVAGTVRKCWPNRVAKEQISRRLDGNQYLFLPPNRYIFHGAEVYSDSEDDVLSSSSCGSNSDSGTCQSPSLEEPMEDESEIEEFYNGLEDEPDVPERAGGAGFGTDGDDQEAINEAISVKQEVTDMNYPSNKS
Assay: Mass spectrometry based assay to identify modulators of SIRT1 activity (deacetylation of p53-based acetylated peptide)
Type: biochemical
Conditions: 10 nM SIRT1, 0.5 μM peptide substrate, 120 μM βNAD+, 25 minutes at 25° C.; for EC1.5 μM: SIRT1 activation

Question: What does the source list for `O=C(Nc1cccc2c(=O)[nH]c(-c3cccc(OC(F)F)c3)nc12)c1cnccn1` [Compound 316]?
Answer: % Fold Act. (percent maximum fold activation): B (Fold Activation<200%); EC1.5 μM: C (EC1.5>25 μM)

Question: What does the source list for `O=C(Nc1cccc2c(=O)cc(-c3cccc(C(F)(F)F)c3)[nH]c12)c1cscn1` [Compound 405]?
Answer: % Fold Act. (percent maximum fold activation): A (Fold activation>200%); EC1.5 μM: A (EC1.5<1.0 μM)

Question: With `Cn1c(-c2ccc(OC(F)(F)F)cc2)nc2c(NC(=O)c3cnccn3)cccc2c1=O` [Compound 252] as the molecule, how does the “% Fold Act. (percent maximum fold activation)” value read?
Answer: Its value is “B (Fold Activation<200%)”.

Question: And the “EC1.5 μM” value?
Answer: Its value is “C (EC1.5>25 μM)”.

Question: How did the “% Fold Act. (percent maximum fold activation)” value turn out when `O=C(Nc1cccc2c(=O)cc(-c3cccc(C(F)(F)F)c3)[nH]c12)c1cccc(F)n1` [Compound 424] was run?
Answer: The value was “A (Fold activation>200%)”.

Question: What about the “EC1.5 μM” value of the same molecule?
Answer: Its value is “A (EC1.5<1.0 μM)”.

Question: For `Cn1c(-c2cccc(C(F)(F)F)c2)nc2c(C(=O)Nc3cccc(N4CCOCC4)n3)cccc2c1=O` [Compound 293], which “% Fold Act. (percent maximum fold activation)” value is on record?
Answer: The value was “A (Fold activation>200%)”.

Question: And the “EC1.5 μM” value?
Answer: Its value is “A (EC1.5<1.0 μM)”.

Question: With `Cn1c(-c2cccc(C(F)(F)F)c2)nc2c(C(=O)Nc3ccc(CN4CCOCC4)nc3)cccc2c1=O` [Compound 301] as the molecule, how does the “% Fold Act. (percent maximum fold activation)” value read?
Answer: The value was “A (Fold activation>200%)”.

Question: And the “EC1.5 μM” value?
Answer: The value was “B (EC1.5 1-25 μM)”.

Question: Which “% Fold Act. (percent maximum fold activation)” value does the source give for `O=C(Nc1cccc2c(=O)[nH]c(-c3ccccc3OC(F)F)nc12)c1cnccn1` [Compound 313] here?
Answer: The value was “A (Fold activation>200%)”.

Question: What about the “EC1.5 μM” value of the same molecule?
Answer: The value was “A (EC1.5<1.0 μM)”.

Question: How did the “% Fold Act. (percent maximum fold activation)” value turn out when `Cn1c(-c2cccc(C(F)F)c2)nc2c(C(=O)Nc3ccccn3)cccc2c1=O` [Compound 323] was run?
Answer: Its value is “B (Fold Activation<200%)”.

Question: What about the “EC1.5 μM” value of the same molecule?
Answer: The value was “C (EC1.5>25 μM)”.

Question: Which “% Fold Act. (percent maximum fold activation)” value does the source give for `O=C(Nc1ccncn1)c1cccc2c(=O)cc(-c3cccc(C(F)(F)F)c3)[nH]c12` [Compound 415] here?
Answer: The value was “A (Fold activation>200%)”.

Question: And the “EC1.5 μM” value?
Answer: The value was “A (EC1.5<1.0 μM)”.

Question: With `O=C(Nc1nccs1)c1cccc2c(=O)cc(-c3ccccc3OC(F)F)[nH]c12` [Compound 436] as the molecule, how does the “% Fold Act. (percent maximum fold activation)” value read?
Answer: The value was “A (Fold activation>200%)”.

Question: What about the “EC1.5 μM” value of the same molecule?
Answer: The value was “A (EC1.5<1.0 μM)”.

Question: How did the “% Fold Act. (percent maximum fold activation)” value turn out when `Cn1c(-c2ncccn2)nc2c(NC(=O)c3cnccn3)cccc2c1=O` [Compound 282] was run?
Answer: Its value is “B (Fold Activation<200%)”.

Question: What about the “EC1.5 μM” value of the same molecule?
Answer: The value was “C (EC1.5>25 μM)”.

Question: `Cn1c(-c2cccc(C(F)(F)F)c2)nc2c(C(=O)Nc3cccc(CN4CCOCC4)c3)cccc2c1=O` [Compound 302] was tested. Which “% Fold Act. (percent maximum fold activation)” value did it give?
Answer: Its value is “A (Fold activation>200%)”.

Question: And the “EC1.5 μM” value?
Answer: Its value is “A (EC1.5<1.0 μM)”.

Question: Which results are given for `Cn1c(-c2ccc(Cl)cc2)nc2c(C(=O)Nc3ccccn3)cccc2c1=O` [Compound 244]?
Answer: % Fold Act. (percent maximum fold activation): B (Fold Activation<200%); EC1.5 μM: C (EC1.5>25 μM)

Question: How did the “% Fold Act. (percent maximum fold activation)” value turn out when `CCc1nnc(NC(=O)c2cccc3c(=O)n(C)c(-c4cccc(C(F)(F)F)c4)nc23)s1` [Compound 294] was run?
Answer: Its value is “A (Fold activation>200%)”.

Question: What about the “EC1.5 μM” value of the same molecule?
Answer: The value was “A (EC1.5<1.0 μM)”.

Question: How did the “% Fold Act. (percent maximum fold activation)” value turn out when `Cn1c(-c2ccncn2)nc2c(C(=O)Nc3ccccn3)cccc2c1=O` [Compound 257] was run?
Answer: The value was “B (Fold Activation<200%)”.

Question: And the “EC1.5 μM” value?
Answer: The value was “C (EC1.5>25 μM)”.

Question: Which results are given for `Cn1c(-c2ccccn2)nc2c(C(=O)Nc3ccccn3)cccc2c1=O` [Compound 255]?
Answer: % Fold Act. (percent maximum fold activation): B (Fold Activation<200%); EC1.5 μM: C (EC1.5>25 μM)

Question: Which “% Fold Act. (percent maximum fold activation)” value does the source give for `Cn1nccc1-c1nc2c(C(=O)Nc3ccccn3)cccc2c(=O)n1C` [Compound 264] here?
Answer: Its value is “B (Fold Activation<200%)”.

Question: And the “EC1.5 μM” value?
Answer: Its value is “C (EC1.5>25 μM)”.

Question: How did the “% Fold Act. (percent maximum fold activation)” value turn out when `Cn1c(C2CCCC2)nc2c(C(=O)Nc3ccccn3)cccc2c1=O` [Compound 214] was run?
Answer: The value was “B (Fold Activation<200%)”.

Question: What about the “EC1.5 μM” value of the same molecule?
Answer: The value was “C (EC1.5>25 μM)”.

Question: How did the “% Fold Act. (percent maximum fold activation)” value turn out when `O=C(Nc1nccs1)c1cccc2c(=O)cc(-c3cccc(C(F)F)c3)[nH]c12` [Compound 431] was run?
Answer: Its value is “A (Fold activation>200%)”.

Question: What about the “EC1.5 μM” value of the same molecule?
Answer: The value was “A (EC1.5<1.0 μM)”.

Question: `Cn1c(-c2cccc(Cl)c2)nc2c(C(=O)Nc3cccnc3)cccc2c1=O` [Compound 243] was tested. Which “% Fold Act. (percent maximum fold activation)” value did it give?
Answer: Its value is “B (Fold Activation<200%)”.

Question: And the “EC1.5 μM” value?
Answer: Its value is “B (EC1.5 1-25 μM)”.
